Here are results for 35 molecules from patent US10246426B2, “Triazole compounds as T-type calcium channel blockers” (IDORSIA PHARMACEUTICALS LTD, priority 2014, dated 2019).

Sequence of Cav3.2 (O95180 whole entry, looked up): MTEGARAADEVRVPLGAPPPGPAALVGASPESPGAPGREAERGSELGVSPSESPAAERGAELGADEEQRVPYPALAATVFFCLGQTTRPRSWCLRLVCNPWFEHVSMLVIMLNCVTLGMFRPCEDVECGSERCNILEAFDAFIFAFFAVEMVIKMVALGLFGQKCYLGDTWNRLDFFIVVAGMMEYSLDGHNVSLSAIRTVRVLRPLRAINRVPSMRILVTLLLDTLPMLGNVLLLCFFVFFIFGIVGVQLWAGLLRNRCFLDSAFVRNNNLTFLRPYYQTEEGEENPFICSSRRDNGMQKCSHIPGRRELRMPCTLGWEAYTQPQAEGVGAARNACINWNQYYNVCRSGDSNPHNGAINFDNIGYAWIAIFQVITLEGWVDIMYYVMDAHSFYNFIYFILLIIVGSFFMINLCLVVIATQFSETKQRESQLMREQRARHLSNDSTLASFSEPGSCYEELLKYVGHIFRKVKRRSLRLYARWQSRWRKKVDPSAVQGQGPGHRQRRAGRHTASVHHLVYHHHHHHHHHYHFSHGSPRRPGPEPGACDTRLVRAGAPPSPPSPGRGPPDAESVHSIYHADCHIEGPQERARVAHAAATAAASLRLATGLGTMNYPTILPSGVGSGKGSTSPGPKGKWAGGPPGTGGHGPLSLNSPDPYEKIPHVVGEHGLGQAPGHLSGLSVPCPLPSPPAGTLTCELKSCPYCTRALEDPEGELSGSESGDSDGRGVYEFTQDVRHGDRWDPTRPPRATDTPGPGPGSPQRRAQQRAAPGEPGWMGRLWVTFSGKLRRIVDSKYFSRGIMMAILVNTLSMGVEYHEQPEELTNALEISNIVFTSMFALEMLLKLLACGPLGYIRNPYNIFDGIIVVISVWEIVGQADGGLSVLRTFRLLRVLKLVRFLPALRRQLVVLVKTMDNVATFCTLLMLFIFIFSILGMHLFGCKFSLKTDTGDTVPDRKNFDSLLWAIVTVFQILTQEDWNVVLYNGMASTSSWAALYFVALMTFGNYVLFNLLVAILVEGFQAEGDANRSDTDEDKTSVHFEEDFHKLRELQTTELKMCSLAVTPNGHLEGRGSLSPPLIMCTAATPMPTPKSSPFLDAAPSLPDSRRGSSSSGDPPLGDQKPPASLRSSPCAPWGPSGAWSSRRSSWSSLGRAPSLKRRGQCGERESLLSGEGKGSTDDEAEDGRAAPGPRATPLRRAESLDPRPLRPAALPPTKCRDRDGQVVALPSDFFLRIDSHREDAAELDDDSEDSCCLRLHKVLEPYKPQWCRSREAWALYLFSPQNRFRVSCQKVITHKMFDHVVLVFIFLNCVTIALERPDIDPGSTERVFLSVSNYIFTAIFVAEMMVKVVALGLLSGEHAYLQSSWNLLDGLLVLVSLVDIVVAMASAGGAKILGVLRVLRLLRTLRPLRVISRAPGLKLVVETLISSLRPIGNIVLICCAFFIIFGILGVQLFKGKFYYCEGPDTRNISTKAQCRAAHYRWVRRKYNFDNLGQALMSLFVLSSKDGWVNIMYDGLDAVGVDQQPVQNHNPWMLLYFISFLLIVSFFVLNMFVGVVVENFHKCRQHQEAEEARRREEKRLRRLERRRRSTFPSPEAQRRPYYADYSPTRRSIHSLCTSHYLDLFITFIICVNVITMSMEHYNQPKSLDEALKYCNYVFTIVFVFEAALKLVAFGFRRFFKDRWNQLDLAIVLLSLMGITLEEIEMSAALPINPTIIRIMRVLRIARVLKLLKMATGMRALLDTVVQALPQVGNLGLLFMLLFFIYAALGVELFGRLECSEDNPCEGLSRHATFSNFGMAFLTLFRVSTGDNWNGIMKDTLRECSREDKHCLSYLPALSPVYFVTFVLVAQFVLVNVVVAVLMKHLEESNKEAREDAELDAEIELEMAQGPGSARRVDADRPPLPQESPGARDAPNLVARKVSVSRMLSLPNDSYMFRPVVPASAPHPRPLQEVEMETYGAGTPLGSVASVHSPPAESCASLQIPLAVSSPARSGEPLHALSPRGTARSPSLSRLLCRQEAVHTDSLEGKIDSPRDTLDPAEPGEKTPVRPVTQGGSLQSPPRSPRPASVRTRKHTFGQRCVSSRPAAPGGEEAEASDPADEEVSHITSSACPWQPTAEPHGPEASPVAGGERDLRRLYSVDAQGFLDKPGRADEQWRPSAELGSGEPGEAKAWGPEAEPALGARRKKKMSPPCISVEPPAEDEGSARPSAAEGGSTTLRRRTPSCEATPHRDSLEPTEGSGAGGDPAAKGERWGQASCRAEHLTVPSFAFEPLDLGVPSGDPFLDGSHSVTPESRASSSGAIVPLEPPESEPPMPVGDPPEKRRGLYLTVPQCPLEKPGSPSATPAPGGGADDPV

This assay addresses Cav3.2 (Homo sapiens, UniProt O95180). Briefly: Calcium flux FLIPR assay, HEK293 cells recombinantly expressing Cav3.2. It counts as cell-based. The note with it: Cav3.2-channel, Ca2+ entry stimulated by 10 mM CaCl2. An outline of the steps: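 Fluo-4-loaded HEK293 cells stably expressing Cav3.2, seeded overnight at 37 °C; compounds diluted in TEAC buffer (pH 7.2) and preincubated 3 min before Ca2+ entry triggered with CaCl2 at 10 mM final. Area under FLIPR fluorescence trace fitted sigmoidally; IC50 relative to vehicle signal.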
On the technique in general: A change in cytosolic calcium serves as a functional read-out for many receptors and channels.
Regarding `Cc1nn(C)c2ccc(CC(=O)Nc3cnn(Cc4ccc(F)c(F)c4)n3)cc12` [Example 28, N-[2-(3,4-Difluoro-benzyl)-2H-[1,2,3]triazol-4-yl]-2-(1,3-dimethyl-1H-indazol-5-yl)-acetamide], the IC50 came to 22 nM.

As to `Cc1cc(Cn2ncc(NC(=O)Cc3ccc(C(C)(C)C)cc3)n2)ccc1C#N` [Example 162, 2-(4-tert-Butyl-phenyl)-N-[2-(4-cyano-3-methyl-benzyl)-2H-[1,2,3]triazol-4-yl]-acetamide], the IC50 worked out at 36 nM.

With `COC1(c2ccc(CC(=O)Nc3cnn(Cc4ccc(F)c(F)c4)n3)cc2)COC1` [Example 20, N-[2-(3,4-Difluoro-benzyl)-2H-[1,2,3]triazol-4-yl]-2-[4-(3-methoxy-oxetan-3-yl)-phenyl]-acetamide], the IC50 worked out at 89 nM.

`CCn1ncc2cc(CC(=O)Nc3cnn(Cc4ccc(F)c(OC)c4)n3)ccc21` [Example 117, 2-(1-Ethyl-1H-indazol-5-yl)-N-[2-(4-fluoro-3-methoxy-benzyl)-2H-[1,2,3]triazol-4-yl]-acetamide]: the IC50 came to 80 nM.

Consider `N#Cc1ccc(Cn2ncc(NC(=O)Cc3ccc(N4CCCC4)nc3)n2)cc1F` [Example 75, N-[2-(4-Cyano-3-fluoro-benzyl)-2H-[1,2,3]triazol-4-yl]-2-(6-pyrrolidin-1-yl-pyridin-3-yl)-acetamide], for which the IC50 was found to be 87 nM.

Consider `CCN(CC)c1ccc(CC(=O)Nc2cnn(Cc3ccc(OC)cc3)n2)cn1` [Example 58, 2-(6-Diethylamino-pyridin-3-yl)-N-[2-(4-methoxy-benzyl)-2H-[1,2,3]triazol-4-yl]-acetamide], for which the IC50 was determined as 160 nM.

On to `O=C(Cc1ccc(N2CCCC2)nc1)Nc1cnn(Cc2ccc(OC(F)(F)F)c(F)c2)n1` [Example 192, N-[2-(3-Fluoro-4-trifluoromethoxy-benzyl)-2H-[1,2,3]triazol-4-yl]-2-(6-pyrrolidin-1-yl-pyridin-3-yl)-acetamide], for which the IC50 turned out to be 23 nM.

As for `CC(C)(C)c1ccc(CC(=O)Nc2cnn(Cc3ccc(OC(F)(F)F)cc3)n2)cc1` [Example 90, 2-(4-tert-Butyl-phenyl)-N-[2-(4-trifluoromethoxy-benzyl)-2H-[1,2,3]triazol4-yl]-acetamide], the IC50 was 200 nM.

Consider `Cc1cn(C)c2ccc(CC(=O)Nc3cnn(Cc4ccc(C#N)cc4)n3)cc12` [Example 100, N-[2-(4-Cyano-benzyl)-2H-[1,2,3]triazol4-yl]-2-(1,3-dimethyl-1H-indol-5-yl)-acetamide], for which the IC50 turned out to be 22 nM.

`CCOc1ccc(Cn2ncc(NC(=O)Cc3ccc(C(C)C)cc3)n2)cc1` [Example 44, N-[2-(4-Ethoxy-benzyl)-2H-[1,2,3]triazol-4-yl]-2-(4-isopropyl-phenyl)-acetamide]: the IC50 was 40 nM.

Consider `COc1cc(Cn2ncc(NC(=O)Cc3ccc(C4(F)COC4)cc3)n2)cc(F)c1F` [Example 224, N-[2-(3,4-Difluoro-5-methoxy-benzyl)-2H-[1,2,3]triazol-4-yl]-2-[4-(3-fluoro-oxetan-3-yl)-phenyl]-acetamide], for which the IC50 is 190 nM.

Regarding `Cc1ccc(Cn2ncc(NC(=O)Cc3ccc(OC4CC(F)(F)C4)cc3)n2)cc1C#N` [Example 209, N-[2-(3-Cyano-4-methyl-benzyl)-2H-[1,2,3]triazol-4-yl]-2-[4-(3,3-difluoro-cyclobutoxy)-phenyl]-acetamide], the IC50 was 180 nM.

Take `COc1cc(Cn2ncc(NC(=O)Cc3ccc4cnn(C)c4c3)n2)cc(F)c1F` [Example 225, N-[2-(3,4-Difluoro-5-methoxy-benzyl)-2H-[1,2,3]triazol-4-yl]-2-(1-methyl-1H-indazol-6-yl)-acetamide]: the half-maximal inhibitory concentration (IC50) is 560 nM.

For `COc1ccc(Cn2ncc(NC(=O)Cc3ccc(C4(F)COC4)cc3)n2)cc1F` [Example 127, N-[2-(3-Fluoro-4-methoxy-benzyl)-2H-[1,2,3]triazol-4-yl]-2-[4-(3-fluoro-oxetan-3-yl)-phenyl]-acetamide], the concentration for half-maximal inhibition (IC50) turned out to be 110 nM.

Take `COc1c(F)cc(Cn2ncc(NC(=O)Cc3ccc4c(ccn4C)c3)n2)cc1F` [Example 77, N-[2-(3,5-Difluoro-4-methoxy-benzyl)-2H-[1,2,3]triazol-4-yl]-2-(1-methyl-1H-indol-5-yl)-acetamide]: the IC50 turned out to be 13 nM.

`Cc1nn(C)c2ccc(CC(=O)Nc3cnn(Cc4ccc(C#N)cc4)n3)cc12` [Example 102, N-[2-(4-Cyano-benzyl)-2H-[1,2,3]triazol-4-yl]-2-(1,3-dimethyl-1H-indazol-5-yl)-acetamide]: the IC50 was 160 nM.

As to `COc1c(F)cc(Cn2ncc(NC(=O)Cc3ccc4cnn(C)c4c3)n2)cc1F` [Example 142, N-[2-(3,5-Difluoro-4-methoxy-benzyl)-2H-[1,2,3]triazol-4-yl]-2-(1-methyl-1H-indazol-6-yl)-acetamide], the IC50 came to 88 nM.

As for `COc1ccc(Cn2ncc(NC(=O)Cc3ccc(C(C)(C)C)cc3)n2)cc1OC` [Example 49, 2-(4-tert-Butyl-phenyl)-N-[2-(3,4-dimethoxy-benzyl)-2H-[1,2,3]triazol-4-yl]-acetamide], the concentration for half-maximal inhibition (IC50) worked out at 170 nM.

As for `COc1ccc(Cn2ncc(NC(=O)Cc3ccc(C(C)C)cc3)n2)cc1` [Example 25, 2-(4-Isopropyl-phenyl)-N-[2-(4-methoxy-benzyl)-2H-[1,2,3]triazol-4-yl]-acetamide], the 50% inhibitory concentration (IC50) is 33 nM.

For the molecule `CC(C)c1ccc(CC(=O)Nc2cnn(Cc3ccc(OC(F)F)c(F)c3)n2)cc1` [Example 180, N-[2-(4-Difluoromethoxy-3-fluoro-benzyl)-2H-[1,2,3]triazol-4-yl]-2-(4-isopropyl-phenyl)-acetamide], the IC50 is 43 nM.

With `CCn1ncc2cc(CC(=O)Nc3cnn(Cc4ccc(OC)c(F)c4)n3)ccc21` [Example 128, 2-(1-Ethyl-1H-indazol-5-yl)-N-[2-(3-fluoro-4-methoxy-benzyl)-2H-[1,2,3]triazol-4-yl]-acetamide], the IC50 came to 150 nM.

Turning to `COc1ccc(Cn2ncc(NC(=O)Cc3ccc(C(C)(C)C)cc3)n2)cc1F` [Example 130, 2-(4-tert-Butyl-phenyl)-N-[2-(3-fluoro-4-methoxy-benzyl)-2H-[1,2,3]triazol-4-yl]-acetamide], the IC50 was found to be 62 nM.

On to `COc1c(F)cc(Cn2ncc(NC(=O)Cc3ccc(C4(C(F)(F)F)CC4)cc3)n2)cc1F` [Example 145, N-[2-(3,5-Difluoro-4-methoxy-benzyl)-2H-[1,2,3]triazol-4-yl]-2-[4-(1-trifluoromethyl-cyclopropyl)-phenyl]-acetamide], for which the half-inhibitory concentration (IC50) was determined as 120 nM.

For `CC(C)c1ccc(CC(=O)Nc2cnn(Cc3ccc(F)c(C#N)c3)n2)cc1` [Example 174, N-[2-(3-Cyano-4-fluoro-benzyl)-2H-[1,2,3]triazol-4-yl]-2-(4-isopropyl-phenyl)-acetamide], the IC50 turned out to be 28 nM.

With `Cn1ccc2cc(CC(=O)Nc3cnn(Cc4ccc(OC(F)(F)F)cc4)n3)ccc21` [Example 91, 2-(1-Methyl-1H-indol-5-yl)-N-[2-(4-trifluoromethoxy-benzyl)-2H-[1,2,3]triazol-4-yl]-acetamide], the half-maximal inhibitory concentration (IC50) was determined as 7.4 nM.

For `N#Cc1ccc(Cn2ncc(NC(=O)Cc3ccc(OCC4(F)COC4)cc3)n2)cc1F` [Example 175, N-[2-(4-Cyano-3-fluoro-benzyl)-2H-[1,2,3]triazol-4-yl]-2-[4-(3-fluoro-oxetan-3-ylmethoxy)-phenyl]-acetamide], the IC50 is 100 nM.

As to `N#Cc1ccc(Cn2ncc(NC(=O)Cc3ccc(S(F)(F)(F)(F)F)cc3)n2)cc1F` [Example 232, N-(2-(4-cyano-3-fluorobenzyl)-2H-1,2,3-triazol-4-yl)-2-(4-(pentafluoro-λ6-sulfanyl)phenyl)acetamide], the IC50 worked out at 110 nM.

For the molecule `COc1cc(Cn2ncc(NC(=O)Cc3ccc4cnn(C)c4c3)n2)ccc1F` [Example 109, N-[2-(4-Fluoro-3-methoxy-benzyl)-2H-[1,2,3]triazol-4-yl]-2-(1-methyl-1H-indazol-6-yl)-acetamide], the concentration for half-maximal inhibition (IC50) was found to be 190 nM.

As to `COc1cc(Cn2ncc(NC(=O)Cc3ccc(C(C)(C)C)cc3)n2)ccc1C#N` [Example 239, 2-(4-tert-Butyl-phenyl)-N-[2-(4-cyano-3-methoxy-benzyl)-2H-[1,2,3]triazol-4-yl]-acetamide], the IC50 was determined as 210 nM.

In the case of `COc1ccc(Cn2ncc(NC(=O)Cc3ccc(N4CCCC4)nc3)n2)cc1C#N` [Example 236, N-[2-(3-Cyano-4-methoxy-benzyl)-2H-[1,2,3]triazol-4-yl]-2-(6-pyrrolidin-1-yl-pyridin-3-yl)-acetamide], the IC50 is 160 nM.

Take `O=C(Cc1ccc2[nH]nc(C3CC3)c2c1)Nc1cnn(Cc2ccc(F)c(F)c2)n1` [Example 29, 2-(3-Cyclopropyl-1H-indazol-5-yl)-N-[2-(3,4-difluoro-benzyl)-2H-[1,2,3]triazol-4-yl]-acetamide]: the half-inhibitory concentration (IC50) came out at 120 nM.

Take `COc1cc(Cn2ncc(NC(=O)Cc3ccc4c(c3)c(C)nn4C)n2)cc(F)c1F` [Example 210, N-[2-(3,4-Difluoro-5-methoxy-benzyl)-2H-[1,2,3]triazol-4-yl]-2-(1,3-dimethyl-1H-indazol-5-yl)-acetamide]: the concentration for half-maximal inhibition (IC50) was found to be 260 nM.

Consider `Cn1ccc2cc(CC(=O)Nc3cnn(Cc4ccc(F)c(F)c4)n3)ccc21` [Example 7, N-[2-(3,4-Difluoro-benzyl)-2H-[1,2,3]triazol-4-yl]-2-(1-methyl-1H-indol-5-yl)-acetamide], for which the 50% inhibitory concentration (IC50) turned out to be 6.4 nM.

With `N#Cc1ccc(Cn2ncc(NC(=O)Cc3ccc(N4CCCC4)nc3)n2)cc1` [Example 98, N-[2-(4-Cyano-benzyl)-2H-[1,2,3]triazol-4-yl]-2-(6-pyrrolidin-1-yl-pyridin-3-yl)-acetamide], the IC50 worked out at 83 nM.

`Cc1cn(C)c2ccc(CC(=O)Nc3cnn(Cc4ccc(C#N)cn4)n3)cc12` [Example 243, N-[2-(5-Cyano-pyridin-2-ylmethyl)-2H-[1,2,3]triazol-4-yl]-2-(1,3-dimethyl-1H-indol-5-yl)-acetamide]: the IC50 came out at 110 nM.

The term IC50 denotes the concentration that inhibits the measured activity by half.
